Reference: patent publication US8029553B2, “Portable laser and process for pain research” (priority 2004, dated 2011)
Entries after “also recorded” stand apart in the source; their conditions may differ.

Assays:
C fibers = test: Threshold pulse duration for hot pain by 980 nm diode laser, stimulation of C fibers; type: in vivo, human; conditions: healthy volunteer affected by topical capsaicin
Description: Subjects: A chronic pain patient with hypersensitivity and a healthy volunteer were tested. Both subjects gave informed consent and the experiments were approved by the local institutional review board. The hairy skin of left hand was used for both volunteers. In preparing the subjects testing, they were asked to respond orally immediately after they perceived any threshold sensation and/or to interrupt lasing pulse by pressing STOP button. They then described the level and type of evoked sensation, location of sensation, how long the sensation lasted, whether the sensation was single (monomodal) sensation or if there were more than one evoked sensations by a single stimulation. Afterwards, the threshold pulse was applied 3 times to different areas with interval of ˜3 min or after the previous sensation (pain) had disappeared. The appearance redness was an indication of skin irritation. Step 1: To test duration of pulse that evoked threshold warmth sensation only, the output power was set to 1.5 W, beam size adjusted to 5 mm. The pulse was applied to the skin. When the volunteer reported warmth (pain) sensation the lasing was stopped. […] The pulse duration for tolerance for hot pain was 2000 ms. […] When this button was pushed the command “stop lasing” was activated, duration of applied pulse was measured and it was indicated on the screen of PC connected to the device by RS232 interface. […]

TRPV1 = biological target: T1, TRPV1 (Rattus norvegicus, UniProt O35433); test: Whole cell patch recording of diode laser evoked inward currents in TRPV1 positive (type 2) DRG cells; type: cell-based; conditions: capsazepine 10 uM, close superfusion, two minute application; laser pulses 20 ms and 2.41 W (1200 mA)
T1 construct: DRG cells TRPV1 positive cells (Type 2) and TRPV2 positive cells (Type 4) were irradiated; from tissue; host or cells: primary neurons dissociated from rat dorsal root ganglia (type 2 cells)
Description: Rats were anesthetized with halothane. Following decapitation, the spinal cord was rapidly removed, and the dorsal root ganglia were dissected free. Dissected ganglia were placed in a heated bath (35° C. for 70 min) containing dispase II and collagenase (2 mg/ml; Sigma type 1). Following wash and trituration, recovered cells were plated on 10 polylysine coated, 35 mm Petri dishes. Cells were bathed continuously in a rat Tyrode's solution containing (mM): 140 NaCl, 4 KCl, 2 MgCl2, 2 CaCl2, 10 glucose, and 10 HEPES, pH adjusted to 7.4 with NaOH. Only one cell was used from each dish. Bath temperature was maintained at 32° C. by a feedback-controlled bath heater (TCbip; Cell Microsystems).
Electrodes were prepared (2-4 MΩ) from glass pipettes using a Brown and Flaming type horizontal puller (Sutter model P87). Whole cell recordings were made with an Axopatch 200B (Axon Instruments). Stimuli were controlled and digital records captured with pClamp 8.2 software and Digidata 1322A A/D converter (Axon Instruments). Series resistance (Rs) was compensated 40-60% with Axopatch 200B compensation circuitry. Whole cell resistance and capacitance was determined by Clampex 8.2 software utility. A liquid junction potential of approximately 4 mV was not corrected.
Recordings were made from cells with diameters between 25 and 45 μm.
Lass 10 M investigational diode laser (Lasmed LLC) was used in all studies. […]

C fiber mediated pain = conditions: background statement; cited from earlier work

T1 sequence (O35433 whole entry, the tested form may be a part): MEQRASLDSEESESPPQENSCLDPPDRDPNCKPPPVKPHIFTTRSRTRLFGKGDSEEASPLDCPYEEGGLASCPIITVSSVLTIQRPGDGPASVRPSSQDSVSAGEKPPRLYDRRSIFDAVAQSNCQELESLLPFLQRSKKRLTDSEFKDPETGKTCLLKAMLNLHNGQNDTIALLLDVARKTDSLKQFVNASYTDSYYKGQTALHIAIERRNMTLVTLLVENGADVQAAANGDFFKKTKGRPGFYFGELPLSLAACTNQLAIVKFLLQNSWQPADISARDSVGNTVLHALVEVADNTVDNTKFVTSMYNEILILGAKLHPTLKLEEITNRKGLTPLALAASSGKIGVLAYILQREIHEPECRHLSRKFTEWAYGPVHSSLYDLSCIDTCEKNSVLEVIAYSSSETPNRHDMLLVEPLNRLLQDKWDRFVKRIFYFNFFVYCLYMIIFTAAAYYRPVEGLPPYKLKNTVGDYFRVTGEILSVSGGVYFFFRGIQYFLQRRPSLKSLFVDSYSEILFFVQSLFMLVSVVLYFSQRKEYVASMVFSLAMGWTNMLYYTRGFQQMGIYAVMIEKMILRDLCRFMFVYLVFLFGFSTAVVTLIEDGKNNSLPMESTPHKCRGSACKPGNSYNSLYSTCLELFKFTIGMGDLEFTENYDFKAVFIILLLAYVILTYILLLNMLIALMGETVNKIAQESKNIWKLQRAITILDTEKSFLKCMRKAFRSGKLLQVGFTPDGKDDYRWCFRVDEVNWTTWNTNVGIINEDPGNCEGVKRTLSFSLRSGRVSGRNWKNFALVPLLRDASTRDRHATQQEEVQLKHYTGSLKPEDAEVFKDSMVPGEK

For `COc1cc(CNC(=O)CCCC/C=C/C(C)C)ccc1O` [Capsaicin], which “threshold pulse duration by reflex time monitored with infrared CCD camera” value (C fibers; 1.5 W, 5 mm, without delay of individual reaction (1270 ms without capsaicin)) is on record?
The value was 650 ms.

And the “threshold pulse duration for hot pain” value (C fibers; output power 1.5 W, beam size 5 mm, hairy skin of left hand, lasing stopped by volunteer (1300 ms without capsaicin))?
Its value is 800 ms.

For `Oc1cc2c(cc1O)CN(C(=S)NCCc1ccc(Cl)cc1)CCC2` [capsazepine], which “currents evoked by 980 nm stimuli” value (TRPV1) is on record?
Its value is “dramatically reduced; also recorded: reduced currents”.

Which “effectiveness in inhibiting C fiber mediated pain compared with A delta fiber mediated pain” value (C fiber mediated pain) does the source give for `CN1CC[C@]23c4c5ccc(O)c4O[C@H]2[C@@H](O)C=C[C@H]3[C@H]1C5` [morphine] here?
Its value is “much more effective”.
